Test results: US20230398134A1, “SOLID DISPERSIONS OF CANNABIDIOL” (INDENA S.P.A., priority 2020, published 2023)

How the values were obtained:
[1] = Solubility in fasted-state simulated intestinal fluid (FaSSIF, pH 6.5); format: physicochemical; conditions: FaSSIF pH 6.5, excess solid, 2 hours stirring at room temperature, filtered 0.45 μm
Protocol: (§1) The solubility of the solid powder dispersion of CBD 2, prepared as described in Example 1, was evaluated in simulated biological fluids. […] For the purposes of the present description, the term “mechanical mixture” means a combination of one or more solids amalgamated by mixing techniques not involving the use of any solvent.
(§2) The solubility studies in different biologically relevant media of the solid dispersion prepared according to Example 1 were conducted to evaluate its behaviour in the intestine under fed and fasted conditions. The solubility studies were conducted in FaSSIF (pH 6.5) and FeSSIF (pH 5).
(§3) 10-20 mL of FaSSIF and FeSSIF were placed in 40 mL glass vials. An amount of solid dispersion prepared according to Example 1, and an amount of mechanical mixture prepared according to Example 2, in excess of the expected saturated solubility, was added to the vials; the resulting mixtures were maintained under stirring for 2 hours at room temperature. The mixtures were filtered through 0.45 μm PTFE membrane filters. The filtered solutions were analysed with HPLC instrumentation.
10-20 mL of FaSSIF was placed in 40 mL glass vials. […] The mixtures were filtered through 0.45 μm PTFE membrane filters. The filtered solutions were analysed with HPLC instrumentation.

[2] = Solubility in fed-state simulated intestinal fluid (FeSSIF, pH 5); format: physicochemical; conditions: FeSSIF pH 5, excess solid, 2 hours stirring at room temperature, filtered 0.45 μm, HPLC (Table 2)
Protocol: as §1, §2, §3

Structure (SMILES): C=C(C)[C@@H]1CCC(C)=C[C@H]1c1c(O)cc(CCCCC)cc1O [Cannabidiol 2, 2-[(1R,6R)-3-methyl-6-(prop-1-en-2-yl)-cyclohex-2-enyl]-5-pentylbenzen-1,3-diol]
- Cannabidiol 2 (mg/mL) concentration ([1]; HPLC (Table 2)): 0.067 mg/mL
- Cannabidiol 2 (mg/mL) concentration ([1]; HPLC (Table 3)): 0.067 mg/mL
- Cannabidiol 2 (mg/mL) concentration [2]: 0.278 mg/mL
